Test results published in PubChem BioAssay AID1963867 (Molecular Pharmacology Branch, DTP, NCI, 2024).
Calls of active or inactive are those of the source. How the source made its calls: active means viability on the fitted dose curve at most 10% of control; inactive means the rest.

Tested on: KRAS-mutant PDC tumor spheroid with HUVEC/MSC, viability
Experiment: Anticancer human tumor 327498-153-R-J2-PDC patient-derived uterine carcinosarcoma cell line growth inhibition [KRAS2]
Conditions: for viability, T/C: stronger effect = lower value
In short: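 Combination screen of spheroid viability in tumor-cell co-cultures with endothelial (HUVEC) and mesenchymal stem cell stroma. Each agent was tested in half-log dilutions, topping at clinical Cmax or at 10 microM without a known Cmax.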

[1] = curve of first compound, second compound 0.1 µM
[2] = curve of first compound, second compound 0.316 µM
[3] = curve of first compound, second compound 1 µM
[4] = curve of first compound, second compound 3.16 µM
[5] = curve of first compound, second compound 10 µM
[6] = second compound 0.1 µM, first compound 0.0316 µM
[7] = second compound 0.1 µM, first compound 0.1 µM
[8] = second compound 0.1 µM, first compound 0.316 µM
[9] = second compound 0.1 µM, first compound 1 µM
[10] = second compound 0.1 µM, first compound 3.16 µM
[11] = second compound 0.1 µM, first compound 10 µM
[12] = second compound 0.316 µM, first compound 0.0316 µM
[13] = second compound 0.316 µM, first compound 0.1 µM
[14] = second compound 0.316 µM, first compound 0.316 µM
[15] = second compound 0.316 µM, first compound 1 µM
[16] = second compound 0.316 µM, first compound 3.16 µM
[17] = second compound 0.316 µM, first compound 10 µM
[18] = second compound 1 µM, first compound 0.0316 µM
[19] = second compound 1 µM, first compound 0.1 µM
[20] = second compound 1 µM, first compound 0.316 µM
[21] = second compound 1 µM, first compound 1 µM
[22] = second compound 1 µM, first compound 3.16 µM
[23] = second compound 1 µM, first compound 10 µM
[24] = second compound 3.16 µM, first compound 0.0316 µM
[25] = second compound 3.16 µM, first compound 0.1 µM
[26] = second compound 3.16 µM, first compound 0.316 µM
[27] = second compound 3.16 µM, first compound 1 µM
[28] = second compound 3.16 µM, first compound 3.16 µM
[29] = second compound 3.16 µM, first compound 10 µM
[30] = second compound 10 µM, first compound 0.0316 µM
[31] = second compound 10 µM, first compound 0.1 µM
[32] = second compound 10 µM, first compound 0.316 µM
[33] = second compound 10 µM, first compound 1 µM
[34] = second compound 10 µM, first compound 3.16 µM
[35] = second compound 10 µM, first compound 10 µM
[36] = second compound 0.1 µM, first compound 0.000316 µM
[37] = second compound 0.1 µM, first compound 0.001 µM
[38] = second compound 0.1 µM, first compound 0.00316 µM
[39] = second compound 0.1 µM, first compound 0.01 µM
[40] = second compound 0.316 µM, first compound 0.000316 µM
[41] = second compound 0.316 µM, first compound 0.001 µM
[42] = second compound 0.316 µM, first compound 0.00316 µM
[43] = second compound 0.316 µM, first compound 0.01 µM
[44] = second compound 1 µM, first compound 0.000316 µM
[45] = second compound 1 µM, first compound 0.001 µM
[46] = second compound 1 µM, first compound 0.00316 µM
[47] = second compound 1 µM, first compound 0.01 µM
[48] = second compound 3.16 µM, first compound 0.000316 µM
[49] = second compound 3.16 µM, first compound 0.001 µM
[50] = second compound 3.16 µM, first compound 0.00316 µM
[51] = second compound 3.16 µM, first compound 0.01 µM
[52] = second compound 10 µM, first compound 0.000316 µM
[53] = second compound 10 µM, first compound 0.001 µM
[54] = second compound 10 µM, first compound 0.00316 µM
[55] = second compound 10 µM, first compound 0.01 µM
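Wherever IC50 is given: spheroids exposed to agents for seven days before reading.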
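Wherever viability, T/C is given: spheroids exposed to agents for seven days before reading; 100% = DMSO vehicle wells so lower means fewer viable cells.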

Compound: CC(C)NCC(C(=O)N1CCN(c2ncnc3c2C(C)CC3O)CC1)c1ccc(Cl)cc1 (configuration not stated) + C=CC(=O)N1CCN(c2nc(=O)n(-c3c(C)ccnc3C(C)C)c3nc(-c4c(O)cccc4F)c(F)cc23)C(C)C1
- IC50 [1]: 41.8 nM
- IC50 [2]: < 31.6 nM
- IC50 [3]: < 31.6 nM
- IC50 [4]: < 31.6 nM
- IC50 [5]: < 31.6 nM
- viability, T/C [6]: 54.5%
- viability, T/C [7]: 36.3%
- viability, T/C [8]: 22.2%
- viability, T/C [9]: 15.3%
- viability, T/C [10]: 11.2%
- viability, T/C [11]: 9.06%
- viability, T/C [12]: 46.5%
- viability, T/C [13]: 32.4%
- viability, T/C [14]: 15.7%
- viability, T/C [15]: 13.5%
- viability, T/C [16]: 11%
- viability, T/C [17]: 7.87%
- viability, T/C [18]: 48.2%
- viability, T/C [19]: 29.6%
- viability, T/C [20]: 19.9%
- viability, T/C [21]: 13.5%
- viability, T/C [22]: 10.4%
- viability, T/C [23]: 7.77%
- viability, T/C [24]: 39.5%
- viability, T/C [25]: 27.3%
- viability, T/C [26]: 17.8%
- viability, T/C [27]: 12.2%
- viability, T/C [28]: 9.99%
- viability, T/C [29]: 8.2%
- viability, T/C [30]: 33.5%
- viability, T/C [31]: 18.2%
- viability, T/C [32]: 14.6%
- viability, T/C [33]: 9.84%
- viability, T/C [34]: 9.14%
- viability, T/C [35]: 3.03%

Compound: CC1(C)CCC(CN2CCN(c3ccc(C(=O)NS(=O)(=O)c4ccc(NCC5CCOCC5)c([N+](=O)[O-])c4)c(Oc4cnc5[nH]ccc5c4)c3)CC2)=C(c2ccc(Cl)cc2)C1 + COc1cc2nc(C)nc(NC(C)c3cc(N)cc(C(F)(F)F)c3)c2cc1OC1CCOC1
- IC50 [1]: 3200 nM
- IC50 [2]: 2270 nM
- IC50 [3]: 2010 nM
- IC50 [4]: 1490 nM
- IC50 [5]: 178 nM
- viability, T/C [6]: 78.8%
- viability, T/C [7]: 80.5%
- viability, T/C [8]: 76.9%
- viability, T/C [9]: 77.3%
- viability, T/C [10]: 50.5%
- viability, T/C [11]: 4.9%
- viability, T/C [12]: 74.3%
- viability, T/C [13]: 64.3%
- viability, T/C [14]: 75.4%
- viability, T/C [15]: 71.1%
- viability, T/C [16]: 41.5%
- viability, T/C [17]: 1.82%
- viability, T/C [18]: 74.1%
- viability, T/C [19]: 72%
- viability, T/C [20]: 65.9%
- viability, T/C [21]: 67.8%
- viability, T/C [22]: 38.8%
- viability, T/C [23]: 0.73%
- viability, T/C [24]: 65.2%
- viability, T/C [25]: 65.3%
- viability, T/C [26]: 66.7%
- viability, T/C [27]: 61.5%
- viability, T/C [28]: 28.4%
- viability, T/C [29]: 3.34%
- viability, T/C [30]: 53%
- viability, T/C [31]: 54.6%
- viability, T/C [32]: 42.1%
- viability, T/C [33]: 39.9%
- viability, T/C [34]: 11.5%
- viability, T/C [35]: 0.44%

Compound: CN(C)C/C=C/C(=O)Nc1cc2c(Nc3ccc(F)c(Cl)c3)ncnc2cc1O[C@H]1CCOC1 + CC1OCC2(CCN(c3cnc(Sc4ccnc(N)c4Cl)c(N)n3)CC2)C1N
- IC50 [1]: > 100 nM
- IC50 [2]: > 100 nM
- IC50 [3]: > 100 nM
- IC50 [4]: < 0.316 nM
- IC50 [5]: 0.428 nM
- viability, T/C [36]: 75.6%
- viability, T/C [37]: 82%
- viability, T/C [38]: 71%
- viability, T/C [39]: 71%
- viability, T/C [6]: 69.3%
- viability, T/C [7]: 56.4%
- viability, T/C [40]: 62.8%
- viability, T/C [41]: 60.4%
- viability, T/C [42]: 53.5%
- viability, T/C [43]: 53.1%
- viability, T/C [12]: 51.2%
- viability, T/C [13]: 53%
- viability, T/C [44]: 106%
- viability, T/C [45]: 109%
- viability, T/C [46]: 103%
- viability, T/C [47]: 104%
- viability, T/C [18]: 99%
- viability, T/C [19]: 91.7%
- viability, T/C [48]: 44%
- viability, T/C [49]: 42.1%
- viability, T/C [50]: 37%
- viability, T/C [51]: 40.7%
- viability, T/C [24]: 32.7%
- viability, T/C [25]: 31.9%
- outcome [52]: inactive
- outcome [53]: inactive
- viability, T/C [54]: 44%
- outcome [55]: inactive
- viability, T/C [30]: 37.3%
- viability, T/C [31]: 33.5%

Compound: CCN1CCN(Cc2ccc(Nc3ncc(F)c(-c4cc(F)c5nc(C)n(C(C)C)c5c4)n3)nc2)CC1
- viability, T/C (compound 0.00316 µM): 88.7% [middle of 5 runs]
- viability, T/C (compound 0.01 µM): 81.7% [middle of 5 runs]
- viability, T/C (compound 0.0316 µM): 65.9% [middle of 5 runs]
- viability, T/C (compound 0.1 µM): 61% [middle of 5 runs]
- viability, T/C (compound 0.316 µM): 59.6% [middle of 5 runs]
- viability, T/C (compound 1 µM): 58.9% [middle of 5 runs]
- IC50 (curve of compound): > 1000 nM

Compound: CC(C)n1nc(-c2ccc3oc(N)nc3c2)c2c(N)ncnc21 + CC1OCC2(CCN(c3cnc(Sc4ccnc(N)c4Cl)c(N)n3)CC2)C1N
- IC50 [1]: 2.17 nM
- IC50 [2]: 0.756 nM
- IC50 [3]: < 0.316 nM
- IC50 [4]: < 0.316 nM
- IC50 [5]: < 0.316 nM
- viability, T/C [36]: 70.3%
- viability, T/C [37]: 72.7%
- viability, T/C [38]: 38.3%
- viability, T/C [39]: 18.5%
- viability, T/C [6]: 8.54%
- viability, T/C [7]: 5.56%
- viability, T/C [40]: 61.8%
- viability, T/C [41]: 46%
- viability, T/C [42]: 28.2%
- viability, T/C [43]: 14.3%
- viability, T/C [12]: 6.36%
- viability, T/C [13]: 4.27%
- viability, T/C [44]: 41.2%
- viability, T/C [45]: 32.8%
- viability, T/C [46]: 20%
- viability, T/C [47]: 10.4%
- viability, T/C [18]: 6.01%
- viability, T/C [19]: 3.72%
- viability, T/C [48]: 31.4%
- viability, T/C [49]: 22.6%
- viability, T/C [50]: 13.8%
- viability, T/C [51]: 8.15%
- viability, T/C [24]: 4.67%
- viability, T/C [25]: 3.18%
- viability, T/C [52]: 22.9%
- viability, T/C [53]: 19.6%
- viability, T/C [54]: 11.7%
- viability, T/C [55]: 7.42%
- viability, T/C [30]: 4.21%
- viability, T/C [31]: 3.29%
